Data reported in patent US20230117252A1, “CELL SHEET HAVING FIBROSIS INHIBITORY ACTION” (NATIONAL UNIVERSITY CORPORATION TOTTORI UNIVERSITY, priority 2017, published 2023).

Assays:
MMP-1 = MMP-1 activity of trypsin-treated cell suspension and cell sheet at different seeding densities (Example 1); assay type: cell-based; settings: for MMP1 average: UE7T-13 cells
Experimental: (§1) In the present disclosure, the MMP activity can be determined by measuring the enzyme activity using a fluorescence resonance energy transfer (FRET) peptide that generates fluorescence upon cleavage by MMP.
(§2) After four days, the temperature-responsive culture dishes were moved into a 32° C., 5% CO2 incubator, and sheets were made. The cell sheets obtained were washed three times with PBS, then homogenized in the buffer of an MMP activity measurement kit (SensoLyte® 520 MMP-1 Assay Kit Fluorimetric, (ANASPEC Co.: Cat #: AS-71150) and SensoLyte® 520 MMP-14 Assay Kit Fluorimetric (ANASPEC Co.: Cat #AS72025)). The cells seeded in the ordinary cell culture dishes were dispersed in 0.025% trypsin/0.1 mM EDTA, recovered by centrifugation, then washed three times with PBS and homogenized in the buffer for the MMP activity measurement. The results in FIG. 1 show the results on MMP-1 (FIG. 1A) and MMP-14 (FIG. 1B) per cell. […] It was a surprising result that the MMP-1 activity per cell was increased by increasing the seeding density.

MMP-14 = MMP-14 activity of trypsin-treated cell suspension and cell sheet at different seeding densities (Example 1); assay type: cell-based; settings: for MMP14 average: UE7T-13 cells
Description: as §1
as §2, with “Bone marrow-derived mesenchymal stem cells (UE7T-13 cell line) were suspended in DMED/10% FBS and seeded to make respective seeded cell densities of 3.6×10^4 cells/cm^2, 5.4×10^4 cells/cm^2, and 7.2×10^4 cells/cm^2 in temperature-responsive culture dishes and ordinary cell culture dishes. After” for “After”

[1] = seeding density 1.8 × 10^4 cells/cm^2, per cell
[2] = seeding density 3.6 × 10^4 cells/cm^2, per cell
[3] = seeding density 5.4 × 10^4 cells/cm^2, per cell
[4] = seeding density 7.2 × 10^4 cells/cm^2, per cell

Trypsin
increase of MMP activity when the seeding density was increased four-fold (MMP-1; Example 1, MMP-1 and MMP-14 together): about four-fold
increase of MMP-1 activity when the seeding density was increased four-fold (MMP-1; FIG. 1A): about four-fold
MMP1 average (MMP-1; [1]): 103548.8
MMP1 average (MMP-1; [2]): 242642.7
MMP1 average (MMP-1; [3]): 326635.6
MMP1 average (MMP-1; [4]): 462976
increase of MMP-14 activity when the seeding density was increased four-fold (MMP-14; FIG. 1B): about four-fold
MMP14 average (MMP-14; [1]): 156184.1
MMP14 average (MMP-14; [2]): 353634.5
MMP14 average (MMP-14; [3]): 427591.6
MMP14 average (MMP-14; [4]): 576164
